Consider one compound from patent US11179722B2, “Microfluidic method for handling microdrops” (ECOLE POLYTECHNIQUE, priority 2016, dated 2021).

This data set has as its system rat hepatoma, H4IIEC3 cells. It is filed as cell-based. The method, then: An experiment was conducted to determine, in a single microfluidic system, the concentration beyond which a medicinal product (acetaminophen) becomes toxic to liver cells (rat hepatoma, H4IIEC3 cells).
The microfluidic chamber used containing 252 identical traps on 2 cm^2 in FIGS. 5A and 5B.
The first microdrops 20 of agarose that is liquid at 37° C. (ultra-low gelling), at 0.9 wt % diluted in culture medium containing H4IIEC3 cells, were trapped in the first trapping zones 15, the second trapping zone 18 remaining free. The first microdrops 20 were then cultured for one day to allow the cells to adhere to one another to form a spheroid by first microdrops 20. […]
By taking a fluorescence image before fusion, the different levels of fluorescence that are correlated with the concentration of medicinal product in the second microdrops 25 could be identified. […]
The chamber was perfused with HFE-7500 (fluorinated oil) containing 1H,1H,2H,2H-perfluorooctan-1-ol at a concentration of 20 vol % in order to fuse the microdrops in contact. […] By taking an image of the final matrix, the spheroids whose viability was affected most could be determined. […] Thus, correlating the result for viability and the concentration of acetaminophen in the second microdrops, it could be determined that the range of toxicity of acetaminophen on these hepatic cells is between 10 and 30 mmol/L for a static exposure of 1 day.

Turning to `CC(=O)Nc1ccc(O)cc1` [acetaminophen], the “cell survival as a function of acetaminophen concentration” value is given as “the higher the concentration of acetaminophen, the fewer cells survive”. In addition, the “range of toxicity of acetaminophen on these hepatic cells” value (rat, 1 day) was 10 and 30.
